Assay results published in ChEMBL document CHEMBL1155946, “Design, synthesis and biological evaluation of glutathione peptidomimetics as components of anti-Parkinson prodrugs” (J Med Chem, 2008).
Activity calls are given as the source filed them. The calls are words filed in the database; no cut-off is given here.

Key:
[1] = Metabolic stability in rat brain at 37 degC; format: ADME, tissue-based
[2] = Stability in buffer solution at pH 7.2
[3] = Metabolic stability in rat plasma at 37 degC; format: ADME, cell-free
[4] = test system: MDCK; assay: Inhibition of [3H]glutathione uptake at glutathione transporter in MDCK cells at 10 nM to 1000 nM by HPLC; format: cell-based; conditions: Canis lupus familiaris

half-life [1] [min] | half-life [2] [min] | half-life [3] [min] | Compound | Activity [4]
360 | > 720 | 180 | N[C@@H](CNC(=O)N[C@@H](CSSCC(=O)C(=O)NCCc1ccc(O)c(O)c1)C(=O)NCC(=O)O)C(=O)O | Active
– | – | – | N[C@@H](CNC(=O)N[C@@H](CSSCC(=O)C(=O)NC12CC3CC(CC(C3)C1)C2)C(=O)NCC(=O)O)C(=O)O | Active
